Results: US4599352A, “Antineoplastic platinum (IV) complexes and compositions” (priority 1984, dated 1986)

What was measured:
Format in all cases: in vivo, Female CD2Fl mice
[1] = system: IP L1210; test: Activity against IP-implanted L1210 leukemia sensitive to cisplatin, 60 day test (Table 4)
Description: (§1) Biological properties of the compounds of the present invention were determined following the protocol described in Cancer Chemotherapy Reports, Vol. 3, No. 3, 1972 which report is incorporated herein by reference.
(§2) Other known mechanisms of resistance for other classes of agents, such as gene amplification or target enzyme change or amplication, also need to be explored. The experiments summarized in Table 3 were conducted at the same time against both sublines using the same drug preparations. […] These experiments were repeated in a second laboratory as documented in Table 4. However, in these experiments the animals were held for 60 rather than 30 days to evaluate whether or not long-term survivors are produced after drug treatment in a more challenging setting.
This experiment (A8-00005 3LE31) was conducted at the Southern Research Institute, Birmingham, Ala. under the supervision of Dr. Daniel Griswold. The protocols were the same as those published previously (Geran et al., Cancer Chemotherapy Reports 3: No. 2, 1972 [Attachment 11]). 10^5 cells were implanted intraperitoneally in CD2Fl male mice on Day 0. Drug treatments were given intraperitoneally as single injections at the doses indicated on Days 1, 5 and 9 after tumor implantation. The diluent was saline except for NSC-271674 where 5% sodium bicarbonate was used. All drugs were prepared fresh on the day of injection, and all were administered in solution. Median survival times for both control and drug-treated mice were determined and expressed as a percentage (% T/C). Body weights were determined on Day 5 and expressed as a weight difference (body weight of the drug-treated animals minus that of the control animals in grams) (T-C). The diluent control animals lived a median of 8.4 days and gained 1.9 grams by Day 5 in this experiment. All animals, including Day 30 survivors, were used in the calculation of median survival times. The log10 change in tumor burden refers to the net log change in viable tumor cell population at the end of therapy (Rx) as compared to the start of therapy; e.g., a […] means that there was a […] and a 3 log change means there was a 1000-fold increase in tumor burden at the end of therapy. The tumor burden at the start of therapy was about 6.1×10^5 cells in this experiment.
(§3) These experiments (23-00081 3LE31 and 23-00003 3DP3l) were conducted concurrently at the Mason Research Institute, Worcester, MA under the supervision of Dr. William Cobb. See Table 4 for experimental details. The diluent control animals bearing L1210 leukemia lived a median of 8.3 days and gained 1.6 grams by Day 5. […] Female CD2Fl mice were used for these experiments.

[2] = system: IP L1210/Cisplatin; test: Activity against IP-implanted L1210/Cisplatin leukemia resistant to cisplatin, 30 day test (Table 3)
Description: as §1, §2
This experiment (A8-00005 3LE31) was conducted at the Southern Research Institute, Birmingham, Ala. under the supervision of Dr. Daniel Griswold. The protocols were the same as those published previously (Geran et al., Cancer Chemotherapy Reports 3: No. 2, 1972 [Attachment 11]). 10^5 cells were implanted intraperitoneally in CD2Fl male mice on Day 0. Drug treatments were given intraperitoneally as single injections at the doses indicated on Days 1, 5 and 9 after tumor implantation. The diluent was saline except for NSC-271674 where 5% sodium bicarbonate was used. All drugs were prepared fresh on the day of injection, and all were administered in solution. Median survival times for both control and drug-treated mice were determined and expressed as a percentage (% T/C). Body weights were determined on Day 5 and expressed as a weight difference (body weight of the drug-treated animals minus that of the control animals in grams) (T-C). The diluent control animals lived a median of 8.4 days and gained 1.9 grams by Day 5 in this experiment. All animals, including Day 30 survivors, were used in the calculation of median survival times. The log10 change in tumor burden refers to the net log change in viable tumor cell population at the end of therapy (Rx) as compared to the start of therapy; e.g., a […] means that there was a […] and a 3 log change means there was a 1000-fold increase in tumor burden at the end of therapy. The tumor burden at the start of therapy was about 6.1×10^5 cells in this experiment. […]

[3] = system: IP L1210/Cisplatin; test: Activity against IP-implanted L1210/Cisplatin leukemia resistant to cisplatin, 60 day test (Table 4)
Description: as §1
Other known mechanisms of resistance for other classes of agents, such as gene amplification or target enzyme change or amplication, also need to be explored. The experiments summarized in Table 3 were conducted at the same time against both sublines using the same drug preparations. […] These experiments were repeated in a second laboratory as documented in Table 4. However, in these experiments the animals were held for 60 rather than 30 days to evaluate whether or not long-term survivors are produced after drug treatment in a more challenging setting. […]
as §3

[Cl][Pt-2]1([Cl])([Cl])([Cl])[NH2+][C@H]2CCCC[C@@H]2[NH2+]1 [trans (d), (1S, 2S)-Tetrachloro-trans-1,2-cyclohexanediamine platinum (IV)]
60 Day Survivors/Total ([1]; 1 mg/kg/dose): 0/10 | Body Weight Difference ([1]; 1 mg/kg/dose): -0.6 Grams | Median % T/C ([1]; 1 mg/kg/dose): 144% | 60 Day Survivors/Total ([1]; 2 mg/kg/dose): 3/10 | Body Weight Difference ([1]; 2 mg/kg/dose): -1.0 Grams | Median % T/C ([1]; 2 mg/kg/dose): 216% | 60 Day Survivors/Total ([1]; 4 mg/kg/dose): 0/10 | Body Weight Difference ([1]; 4 mg/kg/dose): -1.2 Grams | Median % T/C ([1]; 4 mg/kg/dose): 202% | 60 Day Survivors/Total ([1]; 8 mg/kg/dose): 3/10 | Body Weight Difference ([1]; 8 mg/kg/dose): -3.1 Grams | Median % T/C ([1]; 8 mg/kg/dose): 301% | 60 Day Survivors/Total ([1]; 16 mg/kg/dose): 0/10 | Body Weight Difference ([1]; 16 mg/kg/dose): -7.0 Grams | Median % T/C ([1]; 16 mg/kg/dose): Toxic | 30 Day Survivors/Total ([2]; 1 mg/kg/dose): 0/6 | Approx. Log10 Change in Tumor Burden at End of RX ([2]; 1 mg/kg/dose): ~3.1 log10 | Median % T/C ([2]; 1 mg/kg/dose): 101% | 30 Day Survivors/Total ([2]; 2 mg/kg/dose): 0/6 | Approx. Log10 Change in Tumor Burden at End of RX ([2]; 2 mg/kg/dose): ~2.8 log10 | Median % T/C ([2]; 2 mg/kg/dose): 116% | 30 Day Survivors/Total ([2]; 4 mg/kg/dose): 0/6 | Approx. Log10 Change in Tumor Burden at End of RX ([2]; 4 mg/kg/dose): ~2.4 log10 | Median % T/C ([2]; 4 mg/kg/dose): 139% | 30 Day Survivors/Total ([2]; 8 mg/kg/dose): 3/6 | Approx. Log10 Change in Tumor Burden at End of RX ([2]; 8 mg/kg/dose): ~-5.9 log10 | Median % T/C ([2]; 8 mg/kg/dose): 322% | 30 Day Survivors/Total ([2]; 16 mg/kg/dose): 1/6 | Median % T/C ([2]; 16 mg/kg/dose): 143% | 60 Day Survivors/Total ([3]; 1 mg/kg/dose): 0/10 | Body Weight Difference ([3]; 1 mg/kg/dose): -0.4 Grams | Median % T/C ([3]; 1 mg/kg/dose): 125% | 60 Day Survivors/Total ([3]; 2 mg/kg/dose): 0/10 | Body Weight Difference ([3]; 2 mg/kg/dose): -0.2 Grams | Median % T/C ([3]; 2 mg/kg/dose): 147% | 60 Day Survivors/Total ([3]; 4 mg/kg/dose): 6/10 | Body Weight Difference ([3]; 4 mg/kg/dose): -1.4 Grams | Median % T/C ([3]; 4 mg/kg/dose): 645% | 60 Day Survivors/Total ([3]; 8 mg/kg/dose): 1/10 | Body Weight Difference ([3]; 8 mg/kg/dose): -4.8 Grams | Median % T/C ([3]; 8 mg/kg/dose): 193% | 60 Day Survivors/Total ([3]; 16 mg/kg/dose): 0/10 | Body Weight Difference ([3]; 16 mg/kg/dose): -6.1 Grams | Median % T/C ([3]; 16 mg/kg/dose): Toxic
